Experimental findings from US20250009734A1, “METHODS OF INHIBITING FOXO1 FOR TREATMENT OF LYMPHATIC DISORDERS” (UNIVERSITY OF SOUTH FLORIDA, priority 2023, published 2025) are described below.

In assay [1] the test system is Foxc2^+/CreERT2 mice. Kind of assay: Mesenteric lymphatic valve counting after i.p. injection in pups. Type of assay: in vivo, mouse. The source says: FIGS. 3A-3F. AS1842856 treatment in vivo increases valve number in Foxc2^+/CreERT2 mice. (A) Schematic illustration of AS1842856 injection procedure in postnatal day (P) 7-21 pups. (B-E) Fluorescent images showing the morphology of mesenteric collecting lymphatic vessels at P21. Mesenteries are from Prox1-GFP with DMSO (vehicle control) injection (B); Prox1-GFP with AS1842856 injection (C); Foxc2^+/CreERT2; Prox1-GFP with DMSO injection (D); Foxc2^+/CreERT2; Prox1-GFP with AS1842856 injection (E). (F) Quantification of valves per millimeter at P21 from 4 groups of mice. 4 mice are used for the analysis. All values are mean±SEM. Two-way ANOVA was performed with Turkey's multiple comparisons. ns=not significant, *p≤0.05, ***p<0.001. Scale bar is 1000 μm.
(§1) Foxc2 is a chief regulator of lymphatic valve development modulating the expression of many valve genes (Sabine et al., 2015). While Foxc2 null animals are embryonic lethal, the Foxc2 heterozygous mice are a model of the human disease lymphedema-distichiasis with severe lymphatic valve loss (Kriederman et al., 2003, Petrova et al., 2004). To test whether AS1842856 treatment increases valve growth in vivo, the inventors intraperitoneally (i.p.) injected AS1842856 into Foxc2^+/CreERT2 pups. Instead of using wildtype pups as control, Prox1-GFP mice were used as control as well as for visualizing the lymphatic vasculature (Choi et al., 2011). The Foxc2^+/CreERT2 pups were also bred to carry the Prox1-GFP allele. Since the open reading frame in one allele of the Foxc2 gene is replaced with the cDNA for CreERT2, the Foxc2^+/CreERT2 mice is heterozygous for Foxc2 gene (Geng et al., 2016). […] To compare the number of valves from these 4 groups, the inventors counted total number of valves from 6 branches (from the lymph nodes to the gut wall) in the mesentery and measured the total length of these branches as previously published (Scallan et al., 2021). […]
TM administered postnatal pups were euthanized using an IACUC approved method and the colleting lymphatics were analyzed at the experimental timepoints. […]

Assay [2] has as its system Foxc2^+/CreERT2 mice. Kind of assay: Whole-mount immunostaining of mesenteric collecting lymphatic vessels after injection. Type of assay: in vivo, mouse.
Source text: FIG. 4. AS1842856 injection promotes b-catenin nuclear localization in vivo. Panels A-P′ show whole-mount immunostaining of P10 mesenteric collecting lymphatic vessels from wildtype and Foxc2^+/CreERT2 pups with vehicle control (DMSO) or AS1842856 injection. Prox1 in green, Ctnnb1 in purple, and VE-cadherin in gray. A′-P′ are the higher magnification images of the white box areas in A-P. Scale bars are 100 μm.
as §1, with “Instead of using wildtype pups as control, Prox1-GFP mice were used as control as well as for visualizing the lymphatic vasculature (Choi et al., 2011). The Foxc2^+/CreERT2 pups were also bred to carry the Prox1-GFP allele.” left out

As to `CCn1cc(C(=O)O)c(=O)c2c(N)c(F)c(NC3CCCCC3)cc21` [AS1842856], the figures for the valves/mm in mesentery result in the assay with Foxc2^+/CreERT2 mice [1] (Foxc2^+/CreERT2 pups with AS1842856 injection (8 mg/kg i.p. every other day P7-P21) vs Foxc2^+/CreERT2 pups with DMSO injection), with Foxc2^+/CreERT2 mice [1] (Foxc2^+/CreERT2 pups with AS1842856 injection (8 mg/kg i.p. every other day P7-P21) vs Prox1-GFP pups with DMSO injection) and in the assay with Foxc2^+/CreERT2 mice [1] (Prox1-GFP pups with AS1842856 injection (8 mg/kg i.p. every other day P7-P21) vs Prox1-GFP pups with DMSO injection) were “significantly higher”, “still significantly lower” and “no significant difference”, respectively. Besides, the “valves expressing Itga9 (whole-mount immunostaining)” value in the assay with Foxc2^+/CreERT2 mice [2] (AS1842856 treated Foxc2^+/CreERT2 pups) was “all the valves”. For the same compound, the “nuclear localization of β-catenin in mesenteric LECs in vivo” value in the assay with Foxc2^+/CreERT2 mice [2] (P10 mesenteries after two injections, wildtype and Foxc2^+/CreERT2 pups, vs DMSO injected group) was “increased nuclear purple staining from β-catenin”.
